Laboratory results taken from patent US5356926A, “3-alkyloxy-, aryloxy-, or arylalkyloxy-benzo [β]thiophene-2-carboxamides as inhibitors of cell adhesion” (Warner-Lambert Company, priority 1993, dated 1994).

System: human neutrophil adhesion to TNFα, IL-1α, and LPS-stimulated human umbilical vein endothelial cells
Test: Inhibition of human neutrophil adhesion to stimulated HUVEC (51Cr-labeled neutrophils)
Type: cell-based
Text: METHOD FOR DETERMINING THE INHIBITION OF HUMAN NEUTROPHIL ADHESION TO TNFα, IL-1α, AND LPS-STIMULATED HUMAN UMBILICAL VEIN ENDOTHELIAL CELLS BY 3-ALKYLOXY-, ARYLOXY-, OR ARYLALKYLOXY BENZO[b]THIOPHENE-2-CARBOXAMIDES
Neutrophils were isolated from anticoagulant-treated venous blood obtained from healthy human volunteers according to the method of Ferrante and Thong (J. Immunol. Methods 1978;24:389-93).
Second passage human umbilical vein endothelial cells (HUVEC) (Clonetics, San Diego, Calif.) were seeded into Falcon 24-well cell culture plates (Becton Dickinson, Lincoln Park, N.J.) at approximately 2×10^4 cells per well. The cells were grown to confluent monolayers in endothelial basal medium (EBM, Clonetics) supplemented with 5% fetal calf serum (Hyclone Laboratories, Logan, Utah), 10 ng/mL EGF, 1 μg/mL hydrocortisone, 0.4% bovine brain extract (Clonetics) in 5% CO2 at 37° C.
Neutrophils (30×10^6) were labeled for 60 minutes at 37° C. with 100 μCi Na^51 CrO4 (ICN Biomedicals, Costa Mesa, Calif.) in 2.0 mL Ca^2+ - and Mg^2+ -free Hanks' balanced salt solution (HBSS, GIBCO Laboratories, Grand Island, N.Y.). The cells were washed two times in HBSS and suspended in unsupplemented EBM.
Stimulation of HUVEC with tumor necrosis factor-α (TNFα) (Genzyme, Cambridge, Mass.) , interleukin (IL-1α) (Genzyrne) or E. coli 0111:B4 lipopolysaccharide (LPS) (Sigma) in the presence or absence of drug was initiated 4 hours prior to the addition of neutrophils. The suspension medium was unsupplemented EBM or supplemented EBM for studies with cytokines or LPS, respectively. […] Immediately prior to addition of ^51 Cr-labeled neutrophils to the HUVEC monolayers, the cultures were washed with 1 mL unsupplemented media to remove stimulus and/or drug. Neutrophils (5×10^5) were then added to the HUVEC in 0.5 mL unsupplemented media and incubated at 37° C. for 30 minutes. Nonadherent neutrophils were removed by aspiration. Following an additional wash, adherent neutrophils were lysed with 0.5 mL 1N NH4 OH overnight at 37° C. Lysates were collected and the radioactivity in each well was determined by gamma ray spectroscopy.

| Structure (SMILES) | inhibition at 100 µM (Table 1, at 100 μM) [%] | inhibition at 100 µM (Table 2, at 100 μM) [%] | other results |
| --- | --- | --- | --- |
| CC(C)Oc1c(C(N)=O)sc2ccc(Cl)cc12 [Example 3, 5-Chloro-3-(1-methylethoxy)benzo[b]thiophene-2-carboxamide] | 72 |  |  |
| Cc1ccc2sc(C(N)=O)c(OC(C)C)c2c1 [Example 4, 5-Methyl-3-(1-methylethoxy)benzo[b]thiophene-2-carboxamide] | 61 |  |  |
| CC(C)Oc1c(C(N)=O)sc2ccc([N+](=O)[O-])cc12 [Example 5, 3-(1-Methylethoxy)-5-nitrobenzo[b]thiophene2-carboxamide] | 40 |  |  |
| COc1cccc2c(OC(C)C)c(C(N)=O)sc12 [Example 6, 7-Methoxy-3-(1-methylethoxy)benzo[b]thiophene2-carboxamide] | 35 |  |  |
| COc1ccc2sc(C(N)=O)c(OC)c2c1 [Example 7, 3,5-Dimethoxybenzo[b]thiophene-2-carboxamide] | 60 |  |  |
| COc1ccc2sc(C(N)=O)c(OCc3ccccc3)c2c1 [Example 8, 5-Methoxy-3-(phenylmethoxy)benzo[b]thiophene2-carboxamide] | 57 |  |  |
| CC(C)Oc1c(C(N)=O)sc2ccc(O)cc12 [Example 10, 5-Hydroxy-3-(1-methylethoxy)benzo[b]thiophene-2-carboxamide] |  |  | IC50 (Table 1): 1200 nM |
| COc1ccc2c(OC(C)C)c(C(N)=O)sc2c1 [Example 11, 6-Methoxy-3-(1-methylethoxy)benzo[b]thiophene-2-carboxamide] | 24 |  |  |
| COc1ccc2sc(C(=O)Nc3cccc(C(=O)O)c3)c(OC(C)C)c2c1 [Example 13, 3-[[[5-Methoxy-3-(1-methylethoxy)benzo[b]thien-2-yl]carbonyl]amino]benzoic acid] |  | 28 |  |
| CCOC(=O)c1ccccc1NC(=O)c1sc2ccc(OC)cc2c1OC(C)C [Example 14] |  | 32 |  |
| COc1ccc2sc(C(=O)Nc3ccccc3C(=O)O)c(OC(C)C)c2c1 [Example 15, 2-[[[5-Methoxy-3-(1-methylethoxy)benzo[b]thien2-yl]carbonyl]amino]benzoic acid] |  | 35 |  |
| COc1ccc2sc(C(=O)NCc3ccc(C(=O)O)cc3)c(OC(C)C)c2c1 [Example 16, 4-[[[5-Methoxy-3-(1-methylethoxy)benzo[b]thien-2-yl]carbonyl]aminomethyl]benzoic acid] |  | 47 |  |
| COC(=O)Cc1ccc(NC(=O)c2sc3ccc(OC)cc3c2OC(C)C)cc1 [Example 17] |  | 27 |  |
| COc1ccc2sc(C(=O)Nc3ccc(CC(=O)O)cc3)c(OC(C)C)c2c1 [Example 18, 4-[[[5-Methoxy-3-(1-methylethoxy)benzo[b]thien2-yl]carbonyl]amino]benzeneacetic acid] |  | 32 |  |
| COC(=O)Cc1cccc(NC(=O)c2sc3ccc(OC)cc3c2OC(C)C)c1 [Example 19, Methyl 3-[[[5-Methoxy-3-(1-methylethoxy)benzo[b]thien-2-yl]carbonyl]amino]benzeneacetate] |  | 45 |  |
| COc1ccc2sc(C(=O)Nc3cccc(CC(=O)O)c3)c(OC(C)C)c2c1 [Example 20, 3-[[[5-Methoxy-3-(1-methylethoxy)benzo[b]thien-2-yl]carbonyl]amino]benzeneacetic acid] |  | 70 |  |
| COC(=O)CCCCNC(=O)c1sc2ccc(OC)cc2c1OC(C)C [Example 21, Methyl 5-[[[5-methoxy-3-(1-methylethoxy)benzo[b]thien2-yl]carbonyl]amino]pentanoate] |  | 8 |  |
| COc1ccc2sc(C(=O)NCCCCC(=O)O)c(OC(C)C)c2c1 [Example 22, 5-[[[5-Methoxy-3-(1-methylethoxy)benzo[b]thien2-yl]carbonyl]amino]pentanoicacid] |  | 9 |  |
| COc1ccc2sc(C(=O)Nc3ccsc3C(=O)O)c(OC(C)C)c2c1 [Example 23] |  | 20 |  |
| CNC(=O)c1sc2ccc(OC)cc2c1OC(C)C [Example 24] |  | 78 |  |
| CCNC(=O)c1sc2ccc(OC)cc2c1OC(C)C [Example 25] |  | 64 |  |
| COc1ccc2sc(C(=O)Nc3ccccc3)c(OC(C)C)c2c1 [Example 26, 5-Methoxy-3-(1-methylethoxy)-N-phenylbenzo[b]thiophene-2-carboxaraide] |  | 12 |  |
| COc1ccc2sc(C(=O)NCc3ccccc3)c(OC(C)C)c2c1 [Example 27, 5-Methoxy-3-(1-methylethoxy)-N-(phenylmethyl)benzo[b]thiophene-2-carboxamide] |  | 35 |  |
| COc1ccc2c(c1)C(OC(C)C)=C(C(N)=O)S2(=O)=O [Example 29, 5-Methoxy-3-(1-methylethoxy)benzo[b]thiophene2-carboxamide 1,1'-dioxide] |  |  | inhibition at 100 µM (Table 3, at 100 μM): 4% |
| COc1ccc2sc(C(N)=O)c(OC(C)(C)C)c2c1 [Example 30, 3-(1,1-Dimethylethoxy)-5-methoxybenzo[b]thiophene2-carboxamide] | 100 |  |  |
| CC(C)Oc1c(C(N)=O)sc2cc(Cl)ccc12 [Example 31, 6-Chloro-3-(1-thylethoxy)benzo[b]thiophene-2-carboxamide] | 26 |  |  |
| CC(C)Oc1c(C(N)=O)sc2ccc(N)cc12 [Example 32, 5-Amino-3-(1-methylethoxy)benzo[b]thiophene-2-carboxamide] | 49 |  |  |
| COC(=O)CCCNC(=O)c1sc2ccc(OC)cc2c1OC(C)C [Example 33, Methyl 4-[[[5-methoxy-3-(1-methylethoxy)benzo[b]thien-2-yl]carbonyl]amino]butanoate] |  | 100 |  |
| COc1ccc2sc(C(=O)NCCCC(=O)O)c(OC(C)C)c2c1 [Example 34, 4-[[[5-Methoxy-3-(1-methylethoxy)benzo[b]thien-2-yl]carbonyl]amino]butanoicacid] |  | 35 |  |
| COc1ccc2sc(C(=O)NC(C)C)c(OC(C)C)c2c1 [Example 35, 5-Methoxy-3-(1-methylethoxy)-N-(1-methylethyl)benzo[b]thiophene-2-carboxamide] |  | 100 |  |
